Assay [1] relates to GDNF release from C6 cells. Briefly: GDNF releasing potency assay (dose-response in C6 cells). Type of assay: cell-based. To be noted: 0.1-50 uM, concentration giving 50% of maximal GDNF release. The protocol:
Four compounds were selected for determination of GDNF releasing potency. The EC50 value (Table 3) is defined as the concentration of the compound at which 50% of maximal GDNF release is obtained. The C6 cells were incubated with the selected compounds over a range of concentrations (0.1, 1, 5, 10, 20, 30 and 50 uM for each compound) and the amount of released GDNF at each concentration was via examing the dose-dependent release. A dose-response curve was constructed and the EC50 value was obtained by fitting this curve using GraphPad Prism software.

For assay [2], the system named is GDNF release from C6 glioma cells. Kind of assay: GDNF in-situ ELISA in C6 glioma cells. Type of assay: cell-based. Particulars: 10 μM compound, 48-hour incubation, fold over control release, corrected for pre-treatment release; for fold induction at 10 µM: C6 glioma, 48 h, read-out: Fold-Increase of GDNF Concentration. How it is done: The GDNF Emax Immunoassay System from Promega (Madison, Wis.) was used to determine small molecule induced GDNF release from C6 glioma cells (ATCC, Manassas, Va.) with the following protocol. A 96-well ELISA plate was sterilized with UV for 30 minutes. The plate was coated with 100 μl/well of the anti-GDNF monoclonal antibody solution in carbonate coating buffer prepared per the manufacturer's instructions, and incubated overnight at 4° C. The antibody coating buffer was removed from the plate, which was then blocked according to the instructions in the kit. The plate was then incubated with 200 μl/well complete growth medium ([…], 5% FBS, 1% penicillin/streptomycin) for 2×1 h at rt to remove residue of the blocking buffer. After these washes were complete, fresh culture media was added to the wells. C6 cells were seeded at a density of 11,000 cells/well, with a total volume of approximately 150 μl in each well. The plate was incubated at 37° C. in an atmosphere containing 5% CO2. After 24 hours, complete growth medium was replaced with low serum medium (98.5% DMEM, 0.5% FBS, 1% penicillin/streptomycin) and the plate was incubated overnight for cellular synchronization. On the following day, cells were treated with experimental compounds for the indicated time. We used 10 μM concentrations of the tested compounds during a 48-hour incubation. Simultaneously with initiation of treatment, cells were removed from pre-treatment control wells with 5×200 μL washes of TBST (to control for basal GDNF release before the treatment period), and low-serum medium was added to these wells. 6 hours prior to stopping treatment with experimental compounds, the GDNF standard was added to the plate per the manufacturer's instructions. To terminate the treatment, the plate was washed extensively with 200 μl/well TBST washing buffer 5 times, which removed the cells. GDNF release for each well was measured according to GDNF Emax Immunoassay system instructions, and a plate reader was used to measure absorbance at 450 nm. Total GDNF release is calculated from the standard curve using Microsoft Excel. The listed values in Table 1 are presented as fold-increase of release of GDNF over control release of GDNF, corrected for pre-treatment release by subtracting from all values the mean amount of GDNF released in pre-treatment control wells. Statistical significance was determined using the Student's t-test.
Background: In an ELISA, binding on a coated surface is turned into a signal by an enzyme label.

The test system of assay [3] is alcohol intake. Particulars: mice; effect dependent on induction of GDNF in the VTA; cited from earlier work.
For assay [4], the system named is alcohol intake. To be noted: rats; effect dependent on induction of GDNF in the VTA; cited from earlier work.
[5] abbreviates: Rattus norvegicus, C6, C6 cells.

Where two headings read alike, the source gives them in different places.

The compound `CCC1CC2C=CC1N(CCc1c[nH]c3ccccc13)C2` (racemic) [Compound 10a, exo-2-[2-(1H-indol-3-yl)ethyl]-7-ethyl-2-azabicyclo[2.2.2]oct-5-ene] came in with a concentration for a half-maximal effect (EC50) in assay [1] (setting [5]) of 10.2 ± 0.3 µM. Moreover, in assay [2], the “Fold-Increase of GDNF Concentration” value amounted to 3.2 ± 0.2 fold.

On to `CCOC(=O)C1CC2C=CC1N(CCc1c[nH]c3ccccc13)C2` (racemic) [Compound 22, 7-endo-ethoxycarbonyl-2-[2-(1H-indol-3-yl)ethyl]-2-azabicyclo[2.2.2]oct-5-ene], for which the “Fold-Increase of GDNF Concentration” value in assay [2] was 2.0 ± 0.0 fold.

On to `CCC1CC2C=CC1N(CCc1coc3ccccc13)C2` (racemic) [Compound 12g, endo-2-[2-(benzofuran-3-yl)ethyl]-7-ethyl-2-azabicyclo [2.2.2]oct-5-ene], for which the EC50 in assay [1] (C6 cells) came out at 3.6 ± 0.1 µM; in assay [1] (setting [5]), 3.3 µM. Also, the fold induction at 10 µM in assay [2] amounted to 2.9 ± 0.1.

For `CCOC(=O)c1[nH]c2ccccc2c1CCN1CC2C=CC1C(CC)C2` (racemic) [Compound 12d, endo-ethyl-3-[2-(7-ethyl-2-azabicyclo[2.2.2]oct-5-en-2-yl)ethyl]-1H-indole-2-carboxylate], the fold induction at 10 µM in assay [2] stood at 1.5.

As to `CCC1CC2C=CC1N(CCc1c[nH]c3ccccc13)C2` (racemic) [Compound 12a, endo-2-[2-(1H-indol-3-yl)ethyl]-7-ethyl-2-azabicyclo[2.2.2]oct-5-ene], the EC50 in assay [1] (C6 cells) stood at 18.2 ± 0.2 µM. In addition, the fold induction at 10 µM in assay [2] came to 2 ± 0.1.

As to `CCC1CC2C=CC1N(CCc1c[nH]c3ccc(OC)cc13)C2` (racemic) [Compound 12c, endo-7-ethyl-2-[2-(5-methoxy-1H-indol-3-yl)ethyl]-2-azabicyclo [2.2.2]oct-5-ene], the “Fold-Increase of GDNF Concentration” value in assay [2] was found to be 2.1 ± 0.1 fold.

For the compound `CCC1CC2C=CC1N(CCc1c[nH]c3ccc(F)cc13)C2` (racemic) [Compound 12h, endo-7-ethyl-2-[2-(5-fluoro-1H-indol-3-yl)ethyl]-2-azabicyclo[2.2.2]oct-5-ene], the EC50 in assay [1] (setting [5]) is 3.3 µM. Also, the fold induction at 10 µM in assay [2] worked out at 3.1 ± 0.2.

For the compound `CC[C@H]1C[C@H]2C[C@H]3c4[nH]c5ccc(O)cc5c4CCN(C2)[C@@H]13` [noribogaine], the “self-administration and reinstatement of alcohol intake” value in the assay on alcohol intake [3] is “reduce self-administration and reinstatement of alcohol intake”; in the assay with alcohol intake [4] it was “reduce self-administration and reinstatement of alcohol intake”.

Take `CCC1CC2C=CC1N(CCc1c[nH]c3ccc(OC)cc13)C2` (racemic) [Compound 10b, exo-7-ethyl-2-[2-(5-methoxy-1H-indol-3-yl)ethyl]-2-azabicyclo[2.2.2]oct-5-ene]: the fold induction at 10 µM in assay [2] was 2.2 ± 0.2.

On to `CCC1CC2C=CC1N(CCCc1c[nH]c3ccccc13)C2` (racemic) [Compound 12b, endo-2-[3-(1H-indol-3-yl)propyl]-7-ethyl-2-azabicyclo [2.2.2] oct-5-ene], for which, in assay [2], the fold induction at 10 µM was 1.5.

With ibogaine, the “self-administration and reinstatement of alcohol intake” value was “reduce self-administration and reinstatement of alcohol intake” in the assay with alcohol intake [3]; “reduce self-administration and reinstatement of alcohol intake” in the assay with alcohol intake [4].

Take `CCC1CC2C=CC1N(CCc1c[nH]c3ccc(C(F)(F)F)cc13)C2` (racemic) [Compound 12f, endo-7-ethyl-2-[2-(5-trifluoromethyl-1H-indol-3-yl)ethyl]-2-azabicyclo[2.2.2]oct-5-ene]: in assay [2], the fold induction at 10 µM came to 2.

With `CCC1CC2CCC1N(CCc1c[nH]c3ccc(F)cc13)C2` (racemic) [Compound 13b, endo-7-ethyl-2-[2-(5-fluoro-1H-indol-3-yl)ethyl]-2-azabicyclo [2.2.2]octane], the fold induction at 10 µM in assay [2] turned out to be 2.

On to `CCOC(=O)C1CC2C=CC1N(CCc1c[nH]c3ccccc13)C2` (racemic) [Compound 21, 7-exo-ethoxycarbonyl-2-[2-(1H-indol-3-yl)ethyl]-2-azabicyclo[2.2.2]oct-5-ene], for which the fold induction at 10 µM in assay [2] was found to be 1.

As to `CCC1CC2CCC1N(CCc1c[nH]c3ccccc13)C2` (racemic) [Compound 13a, endo-2-[2-(1H-indol-3-yl)ethyl]-7-ethyl-2-azabicyclo [2.2.2]octane], the fold induction at 10 µM in assay [2] was found to be 2.

The term EC50 denotes the concentration that produces a half-maximal response. Lower therefore signals greater potency.

The record behind these values is patent US9988377B2, “Small molecule inducers of GDNF as potential new therapeutics for neuropsychiatric disorders” (THE TRUSTEES OF COLUMBIA UNIVERSITY IN THE CITY OF NEW YORK, priority 2011, dated 2018).
